Assay results published in patent publication US20120264784A1, “METHODS OF TREATING ELEVATIONS IN MTOR SIGNALING” (priority 2009, published 2012).

Key:
[1] = system: area CA1 of hippocampal slices; test: Paired pulse facilitation (presynaptic LTD) in acute hippocampal slices; design: species or system mice; details: for PPF (ratio of fEPSP slope of stimulus 2 to stimulus 1): 50 ms inter-stimulus interval, 60 minutes post DHPG (FIG. 3D)
Experimental: (§1) Field recordings were performed in a submersion chamber, perfused with ACSF (about 2-3 ml/min) at 30° C. Field EPSPs (fEPSPs) were recorded in CA1 stratum radiatum with extracellular electrodes filled with ACSF. Baseline responses were evoked by stimulation of the Schaffer collaterals at 0.033 Hz with a 2-contact cluster electrode (FHC) using about a 0.2 ms stimulus yielding about 40-60% of the maximal response. fEPSP recordings were filtered at about 0.1 Hz-1 kHz, digitized at 10 kHz, and analyzed using pClamp9 (Axon Instruments). The initial slope of the response was used to assess changes in synaptic strength. Data were normalized to the baseline response and are presented as group means±SEM. LTD was measured by comparing the average response about 55-60 minutes post DHPG application to the average of the last 5 minutes of baseline.
(§2) Input output function was examined by stimulating slices with incrementally increasing current (about 20, about 40, about 80, about 120, about 200, about 300 μA) and recording the fEPSP response. Paired pulse facilitation was induced by applying two pulses at different interstimulus intervals (about 10, about 20, about 50, about 100, about 200, about 300, about 500 ms). Facilitation was measured by the ratio of the fEPSP slope of stimulus 2 to stimulus 1. NMDAR-dependent LTD was induced by delivering 900 test pulses at 1 Hz. mGluR-LTD was induced by applying R, S-Dihydroxyphenylglycine (R,S-DHPG, 50 μM) or S-Dihydroxyphenylglycine (S-DHPG, 25 μM) for about 5 minutes, the effects of which were followed for 60 minutes following treatment. In some experiments slices were incubated with the protein synthesis inhibitor cycloheximide (60 μM) for 30 minutes as follows: about 20 minutes during baseline recording, about 5 minutes during DHPG application and about 5 minutes post DHPG application.

[2] = system: area CA1 of hippocampal slices; test: DHPG induced mGluR-LTD, field EPSP recordings in acute hippocampal slices; design: species or system mice
Experimental: Acute hippocampal slices were prepared from P25-30 animals in ice-cold dissection buffer containing (in mM): NaCl 87, Sucrose 75, KCl 2.5, NaH2PO4 1.25, NaHCO3 25, CaCl2 0.5, MgSO4 7, Ascorbic acid 1.3, and D-glucose 10 (saturated with 95% O2/5% CO2). Immediately following slicing the CA3 region was removed. Slices were recovered in artificial cerebrospinal fluid (ACSF) containing (in mM): NaCl 124, KCl 5, NaH2PO4 1.23, NaHCO3 26, CaCl2 2, MgCl2 1 and D-glucose 10 (saturated with 95% O2/5% CO2) at 32.5° C. for about >3 hours prior to recording.
as §1, §2
For mGluR PAM experiments, slices were pretreated with CDPPB (10 μM) or DMSO control for about 30 minutes in same manner as above, either in the presence of cycloheximide or control ACSF. For rapamycin experiments, slices were pretreated with rapamycin (20 nM) or DMSO control, with or without cycloheximide, for at least 30 minutes prior to DHPG application and throughout the entire experiment.

[3] = system: wildtype and Tsc2^+/− mice; test: Context fear-conditioning (context discrimination); assay type: in vivo; details: for effect on context discrimination (in words): 10 mg/kg i.p. 30 minutes prior to training; for percentage of time spent freezing: single injection 10 mg/kg i.p. 30 minutes prior to training, tested 24 hours later
Experimental: Context fear-conditioning experiments were employed to assess improvements in cognitive processing following administration of a composition that activates Group I mGluR signaling, such as by administration of mGluR5PAMs. Context fear-conditioning was performed using a modification of a previously described procedure (Ehninger, D., et al., Nat Med 14, 843-8 (2008). Wildtype and Tsc2^+/− mice (8-12 weeks old) are habituated to the testing room and experimenter for 3 days prior to training On the day of training, mice is placed in the training context and delivered one 0.80 mA shocks (2 sec). The mice were allowed about 3 minutes to explore context before conditioning and were removed about 15 sec after the shock was given and returned to home cage. Conditioned fear response was assessed 24 hours later by a trained observer measuring the percentage of time spent freezing during the test period (about 3 min session). To determine context specificity of the conditioned response, mice trained at the same time were separated into two groups: one group was tested in the same training context and the other tested in a novel context. This novel context was created by varying: distal cues, odor, floor material, and lighting of the testing apparatus. For rescue experiments, animals received a single injection of CDPPB (10 mg/kg, i.p.) about 30 minutes prior to training session.
Cognitive impairments in the Tsc2^+/− mice were improved by treating the animals with the mTORC1 inhibitor rapamycin (Ehninger, D., et al., Nat. Med. 14: 843-848 (2008)). A robust phenotype was reported to be an impairment in the ability of the Tsc2^+/− mice to distinguish between familiar and novel contexts in a fear conditioning paradigm. The advantage of this paradigm is the learning occurs in one trial, making it amenable to acute drug treatment, and the memory is hippocampus-dependent. The mice are first exposed to a distinctive context in which they receive an aversive foot shock. The next day, context discrimination is tested by dividing the animals into two groups, one placed in the familiar context associated with the shock, and the other placed in a novel context (FIG. 6A). Context discrimination is assessed by measuring the time the animals express fear by freezing in each context.

`N[C@@H](C(=O)O)c1cc(O)cc(O)c1` (racemic) [DHPG, (R,S)-3,5-dihydroxyphenylglycine] was tested, and the “PPF (ratio of fEPSP slope of stimulus 2 to stimulus 1)” value ([1]; Tsc2^+/− slices) was 1.63±0.02, the “PPF (ratio of fEPSP slope of stimulus 2 to stimulus 1)” value ([1]; WT slices) was 1.59±0.04 and the “DHPG induced LTD (fEPSP slope normalized to baseline)” value ([2]; slices from Tsc2^+/− mice, DHPG alone, 5 min, 55-60 min post DHPG (FIG. 3B)) was 85.2±2.7%. The “DHPG induced LTD (fEPSP slope normalized to baseline)” value ([2]; slices from WT mice, DHPG alone, 5 min, 55-60 min post DHPG (FIG. 3B)) was 74.1±2.0%.

With `N#Cc1cccc(C(=O)Nc2cc(-c3ccccc3)nn2-c2ccccc2)c1` [CDPPB, 3-cyano-N-(1,3-diphenyl-1H-pyrazol-5-yl)benzamide] the “effect on context discrimination (in words)” value ([3]; Tsc2^+/− mice) was “sufficient to correct the deficit in context discrimination”, the “percentage of time spent freezing” value ([3]; Tsc2^+/− mice, familiar context) was 44.5±4.3% and the “percentage of time spent freezing” value ([3]; Tsc2^+/− mice, novel context) was 31.6±3%. For the same compound, the “effect on context discrimination (in words)” value ([3]; WT mice) was “no effect”, the “percentage of time spent freezing” value ([3]; WT mice, familiar context) was 42.3±3.7% and the “percentage of time spent freezing” value ([3]; WT mice, novel context) was 26.4±3.6%. For the same compound, the “effect on DHPG induced LTD (in words)” value ([2]; slices from Tsc2^+/− mice) was “restored the magnitude of mGluR-LTD in Tsc2^+/− mice to WT levels”, the “DHPG induced LTD (fEPSP slope normalized to baseline)” value ([2]; slices from Tsc2^+/− mice, CDPPB 10 μM co-applied with cycloheximide (FIG. 5E)) was 84.8±1.8% and the “DHPG induced LTD (fEPSP slope normalized to baseline)” value ([2]; slices from Tsc2^+/− mice, pretreatment with CDPPB 10 μM (FIG. 5D)) was 72.7±4.4%. For the same compound, the “effect on DHPG induced LTD in the presence of cycloheximide (in words)” value ([2]; slices from Tsc2^+/− mice, with cycloheximide) was “completely eliminated by cycloheximide”.

With `C[C@@H]1C[C@@H]([C@H](O)CC2CC(=O)NC(=O)C2)C(=O)[C@@H](C)C1` [CHX, cycloheximide] the “PPF (ratio of fEPSP slope of stimulus 2 to stimulus 1)” value ([1]; Tsc2^+/− slices, DHPG+CHX) was 1.62±0.04, the “PPF (ratio of fEPSP slope of stimulus 2 to stimulus 1)” value ([1]; WT slices, DHPG+CHX) was 1.58±0.05 and the “effect on changes in PPF following DHPG (in words)” value ([1]; WT slices, cycloheximide 60 μM (FIG. 3D)) was “not inhibited”. The “effect on DHPG induced LTD (in words)” value ([2]; slices from Tsc2^+/− mice) was “no effect on LTD”, the “DHPG induced LTD (fEPSP slope normalized to baseline)” value ([2]; slices from Tsc2^+/− mice, cycloheximide 60 μM (FIG. 3C)) was 83.5±2.1% and the “effect on DHPG induced LTD (in words)” value ([2]; slices from WT mice) was “reliably reduced”. For the same compound, the “DHPG induced LTD (fEPSP slope normalized to baseline)” value ([2]; slices from WT mice, pretreatment with cycloheximide 60 μM (FIG. 3A)) was 85.6±3.4%.

In the case of `CO[C@H]1C[C@@H]2CC[C@@H](C)[C@@](O)(O2)C(=O)C(=O)N2CCCC[C@H]2C(=O)O[C@H]([C@H](C)C[C@@H]2CC[C@@H](O)[C@H](OC)C2)CC(=O)[C@H](C)/C=C(\C)[C@@H](O)[C@@H](OC)C(=O)[C@H](C)C[C@H](C)/C=C/C=C/C=C/1C` [RAP, rapamycin], the “DHPG induced LTD (fEPSP slope normalized to baseline)” value ([2]; slices from Tsc2^+/− mice, pretreatment with rapamycin 20 nM (FIG. 5B)) was 75.3±3%, the “DHPG induced LTD (fEPSP slope normalized to baseline)” value ([2]; slices from Tsc2^+/− mice, rapamycin 20 nM with cycloheximide (FIG. 5C)) was 89.3±2.4% and the “effect on DHPG induced LTD (in words)” value ([2]; slices from WT mice) was “no effect”. The “DHPG induced LTD (fEPSP slope normalized to baseline)” value ([2]; slices from wildtype animals, pretreatment with rapamycin 20 nM (FIG. 5A)) was 73.0%.
